Assay results published in paper PMC10008561 (Nature Communications, 2023).

Columns and labels:
human KOR (GoA) [1] = target: T1, human KOR (GoA) (Homo sapiens, UniProt P41145); assay: cell-based
T1 construct: expressed in transfected cells; host or cells: HEK293T

human KOR (GoA) [2] = target: T2, human KOR (GoA) (Homo sapiens, UniProt P41145, D266A); assay: cell-based
T2 construct: expressed in transfected cells; host or cells: HEK293T

human KOR (GoA) [3] = target: T3, human KOR (GoA) (Homo sapiens, UniProt P41145, D334A); assay: cell-based
T3 construct: expressed in transfected cells; host or cells: HEK293T
T3 sequence (P41145 whole entry D334A): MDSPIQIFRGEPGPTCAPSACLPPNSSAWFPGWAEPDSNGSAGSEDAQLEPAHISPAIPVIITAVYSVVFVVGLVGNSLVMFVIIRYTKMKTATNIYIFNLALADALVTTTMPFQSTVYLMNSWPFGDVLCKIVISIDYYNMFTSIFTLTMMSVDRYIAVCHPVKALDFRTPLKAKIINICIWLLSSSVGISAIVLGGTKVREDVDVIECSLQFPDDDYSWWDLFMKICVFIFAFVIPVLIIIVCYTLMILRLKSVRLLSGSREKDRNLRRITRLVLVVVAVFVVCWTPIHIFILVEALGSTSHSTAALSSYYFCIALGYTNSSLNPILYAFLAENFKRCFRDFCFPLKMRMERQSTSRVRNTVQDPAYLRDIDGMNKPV

human KOR (GoA) [4] = target: T4, human KOR (GoA) (Homo sapiens, UniProt P41145, E297A); assay: cell-based
T4 construct: expressed in transfected cells; host or cells: HEK293T
T4 sequence (P41145 whole entry E297A): as the sequence (P41145 whole entry D334A) above, with E297A, A334D counted along it

human KOR (GoA) [5] = target: T5, human KOR (GoA) (Homo sapiens, UniProt P41145, G319L); assay: cell-based
T5 construct: expressed in transfected cells; host or cells: HEK293T
T5 sequence (P41145 whole entry G319L): as the sequence (P41145 whole entry D334A) above, with G319L, A334D counted along it

human KOR (GoA) [6] = target: T6, human KOR (GoA) (Homo sapiens, UniProt P41145, K200A); assay: cell-based
T6 construct: expressed in transfected cells; host or cells: HEK293T
T6 sequence (P41145 whole entry K200A): as the sequence (P41145 whole entry D334A) above, with K200A, A334D counted along it

human KOR (GoA) [7] = target: T7, human KOR (GoA) (Homo sapiens, UniProt P41145, L253A); assay: cell-based; details: HEK-293T
T7 construct: expressed in transfected cells; host or cells: HEK293T
T7 sequence (P41145 whole entry L253A): as the sequence (P41145 whole entry D334A) above, with L253A, A334D counted along it

human KOR (GoA) [8] = target: T8, human KOR (GoA) (Homo sapiens, UniProt P41145, N322A); assay: cell-based
T8 construct: expressed in transfected cells; host or cells: HEK293T
T8 sequence (P41145 whole entry N322A): as the sequence (P41145 whole entry D334A) above, with N322A, A334D counted along it

human KOR (GoA) [9] = target: T9, human KOR (GoA) (Homo sapiens, UniProt P41145, R271A); assay: cell-based
T9 construct: expressed in transfected cells; host or cells: HEK293T
T9 sequence (P41145 whole entry R271A): as the sequence (P41145 whole entry D334A) above, with R271A, A334D counted along it

human KOR (GoA) [10] = target: T10, human KOR (GoA) (Homo sapiens, UniProt P41145, R274A); assay: cell-based
T10 construct: expressed in transfected cells; host or cells: HEK293T
T10 sequence (P41145 whole entry R274A): as the sequence (P41145 whole entry D334A) above, with R274A, A334D counted along it

human KOR (GoA) [11] = target: T11, human KOR (GoA) (Homo sapiens, UniProt P41145, T94V); assay: cell-based
T11 construct: expressed in transfected cells; host or cells: HEK293T
T11 sequence (P41145 whole entry T94V): as the sequence (P41145 whole entry D334A) above, with T94V, A334D counted along it

human KOR (GoA) [12] = target: T12, human KOR (GoA) (Homo sapiens, UniProt P41145, Y320L); assay: cell-based; details: HEK-293T
T12 construct: expressed in transfected cells; host or cells: HEK293T
T12 sequence (P41145 whole entry Y320L): as the sequence (P41145 whole entry D334A) above, with Y320L, A334D counted along it

human KOR (GoB) [13] = target: T13, human KOR (GoB) (Homo sapiens, UniProt P41145); assay: cell-based
T13 construct: expressed in transfected cells; host or cells: HEK293T
T13 sequence (P41145 whole entry): as the sequence (P41145 whole entry D334A) above, with A334D counted along it

human KOR (GoB) [14] = target: T14, human KOR (GoB) (Homo sapiens, UniProt P41145, D105A); assay: cell-based; details: HEK-293T
T14 construct: expressed in transfected cells; host or cells: HEK293T
T14 sequence (P41145 whole entry D105A): as the sequence (P41145 whole entry D334A) above, with D105A, A334D counted along it

human KOR (GoB) [15] = target: T15, human KOR (GoB) (Homo sapiens, UniProt P41145, D155A); assay: cell-based; details: HEK-293T
T15 construct: expressed in transfected cells; host or cells: HEK293T
T15 sequence (P41145 whole entry D155A): as the sequence (P41145 whole entry D334A) above, with D155A, A334D counted along it

human KOR (GoB) [16] = target: T16, human KOR (GoB) (Homo sapiens, UniProt P41145, D334A); assay: cell-based; details: HEK-293T
T16 construct: expressed in transfected cells; host or cells: HEK293T
T16 sequence (P41145 whole entry D334A): as the sequence (P41145 whole entry D334A) above

human KOR (GoB) [17] = target: T17, human KOR (GoB) (Homo sapiens, UniProt P41145, E297A); assay: cell-based; details: HEK-293T
T17 construct: expressed in transfected cells; host or cells: HEK293T
T17 sequence (P41145 whole entry E297A): as the sequence (P41145 whole entry D334A) above, with E297A, A334D counted along it

human KOR (GoB) [18] = target: T18, human KOR (GoB) (Homo sapiens, UniProt P41145, F114L); assay: cell-based; details: HEK-293T
T18 construct: expressed in transfected cells; host or cells: HEK293T
T18 sequence (P41145 whole entry F114L): as the sequence (P41145 whole entry D334A) above, with F114L, A334D counted along it

human KOR (GoB) [19] = target: T19, human KOR (GoB) (Homo sapiens, UniProt P41145, F283A); assay: cell-based; details: HEK-293T
T19 construct: expressed in transfected cells; host or cells: HEK293T
T19 sequence (P41145 whole entry F283A): as the sequence (P41145 whole entry D334A) above, with F283A, A334D counted along it

human KOR (GoB) [20] = target: T20, human KOR (GoB) (Homo sapiens, UniProt P41145, G319L); assay: cell-based; details: HEK-293T
T20 construct: expressed in transfected cells; host or cells: HEK293T
T20 sequence (P41145 whole entry G319L): as the sequence (P41145 whole entry D334A) above, with G319L, A334D counted along it

human KOR (GoB) [21] = target: T21, human KOR (GoB) (Homo sapiens, UniProt P41145, K200A); assay: cell-based; details: HEK-293T
T21 construct: expressed in transfected cells; host or cells: HEK293T
T21 sequence (P41145 whole entry K200A): as the sequence (P41145 whole entry D334A) above, with K200A, A334D counted along it

human KOR (GoB) [22] = target: T22, human KOR (GoB) (Homo sapiens, UniProt P41145, K227A); assay: cell-based; details: HEK-293T
T22 construct: expressed in transfected cells; host or cells: HEK293T
T22 sequence (P41145 whole entry K227A): as the sequence (P41145 whole entry D334A) above, with K227A, A334D counted along it

human KOR (GoB) [23] = target: T23, human KOR (GoB) (Homo sapiens, UniProt P41145, L253A); assay: cell-based; details: HEK-293T
T23 construct: expressed in transfected cells; host or cells: HEK293T
T23 sequence (P41145 whole entry L253A): as the sequence (P41145 whole entry D334A) above, with L253A, A334D counted along it

human KOR (GoB) [24] = target: T24, human KOR (GoB) (Homo sapiens, UniProt P41145, N141A); assay: cell-based; details: HEK-293T
T24 construct: expressed in transfected cells; host or cells: HEK293T
T24 sequence (P41145 whole entry N141A): as the sequence (P41145 whole entry D334A) above, with N141A, A334D counted along it

human KOR (GoB) [25] = target: T25, human KOR (GoB) (Homo sapiens, UniProt P41145, N322A); assay: cell-based; details: HEK-293T
T25 construct: expressed in transfected cells; host or cells: HEK293T
T25 sequence (P41145 whole entry N322A): as the sequence (P41145 whole entry D334A) above, with N322A, A334D counted along it

human KOR (GoB) [26] = target: T26, human KOR (GoB) (Homo sapiens, UniProt P41145, N326A); assay: cell-based; details: HEK-293T
T26 construct: expressed in transfected cells; host or cells: HEK293T
T26 sequence (P41145 whole entry N326A): as the sequence (P41145 whole entry D334A) above, with N326A, A334D counted along it

human KOR (GoB) [27] = target: T27, human KOR (GoB) (Homo sapiens, UniProt P41145, Q115N); assay: cell-based; details: HEK-293T
T27 construct: expressed in transfected cells; host or cells: HEK293T
T27 sequence (P41145 whole entry Q115N): as the sequence (P41145 whole entry D334A) above, with Q115N, A334D counted along it

human KOR (GoB) [28] = target: T28, human KOR (GoB) (Homo sapiens, UniProt P41145, R170A); assay: cell-based; details: HEK-293T
T28 construct: expressed in transfected cells; host or cells: HEK293T
T28 sequence (P41145 whole entry R170A): as the sequence (P41145 whole entry D334A) above, with R170A, A334D counted along it

human KOR (GoB) [29] = target: T29, human KOR (GoB) (Homo sapiens, UniProt P41145, R257A); assay: cell-based; details: HEK-293T
T29 construct: expressed in transfected cells; host or cells: HEK293T
T29 sequence (P41145 whole entry R257A): as the sequence (P41145 whole entry D334A) above, with R257A, A334D counted along it

human KOR (GoB) [30] = target: T30, human KOR (GoB) (Homo sapiens, UniProt P41145, R274A); assay: cell-based; details: HEK-293T
T30 construct: expressed in transfected cells; host or cells: HEK293T
T30 sequence (P41145 whole entry R274A): as the sequence (P41145 whole entry D334A) above, with R274A, A334D counted along it

human KOR (GoB) [31] = target: T31, human KOR (GoB) (Homo sapiens, UniProt P41145, T94V); assay: cell-based; details: HEK-293T
T31 construct: expressed in transfected cells; host or cells: HEK293T
T31 sequence (P41145 whole entry T94V): as the sequence (P41145 whole entry D334A) above, with T94V, A334D counted along it

human KOR (GoB) [32] = target: T32, human KOR (GoB) (Homo sapiens, UniProt P41145, Y320L); assay: cell-based; details: HEK-293T
T32 construct: expressed in transfected cells; host or cells: HEK293T
T32 sequence (P41145 whole entry Y320L): as the sequence (P41145 whole entry D334A) above, with Y320L, A334D counted along it

KOR [33] = assay type: cell-based, human
KOR [34] = tested on: KOR; design: method as in Cao et al., ACS Chem Neuro 2020; details: ref Cao et al., ACS Chem Neuro 2020; cited from earlier work

T1 sequence (P41145 whole entry): as the sequence (P41145 whole entry D334A) above, with A334D counted along it
T2 sequence (P41145 whole entry D266A): as the sequence (P41145 whole entry D334A) above, with D266A, A334D counted along it

Compound: CN(C(=O)/C=C/c1ccoc1)[C@@H]1CC[C@@]2(O)[C@H]3Cc4ccc(O)c5c4[C@@]2(CCN3CC2CC2)[C@H]1O5 [Nalfurafine, nalfurafine]
- Emax% (human KOR (GoA) [1]): 98.31%
- FC vs wild type (human KOR (GoA) [1]): 1
- Emax (human KOR (GoA) [1]; HEK-293T): 98.7%
- FC vs wild type (human KOR (GoA) [2]): 132
- Emax (human KOR (GoA) [2]; HEK-293T): 108%
- FC vs wild type (human KOR (GoA) [3]): 18
- Emax (human KOR (GoA) [3]; HEK-293T): 96.9%
- FC vs wild type (human KOR (GoA) [4]): 2
- Emax (human KOR (GoA) [4]; HEK-293T): 98.9%
- FC vs wild type (human KOR (GoA) [5]): 20
- Emax (human KOR (GoA) [5]; HEK-293T): 101%
- FC vs wild type (human KOR (GoA) [6]): 8
- Emax (human KOR (GoA) [6]; HEK-293T): 91.4%
- Emax (human KOR (GoA) [7]): 109%
- FC vs wild type (human KOR (GoA) [8]): 100
- Emax (human KOR (GoA) [8]; HEK-293T): 91.3%
- FC vs wild type (human KOR (GoA) [9]): 135
- Emax (human KOR (GoA) [9]; HEK-293T): 107%
- FC vs wild type (human KOR (GoA) [10]): 479
- Emax (human KOR (GoA) [10]; HEK-293T): 99.5%
- FC vs wild type (human KOR (GoA) [11]): 1
- Emax (human KOR (GoA) [11]; HEK-293T): 99.7%
- Emax (human KOR (GoA) [12]): 75.8%
- Emax% (human KOR (GoB) [13]): 99.55%
- Emax (human KOR (GoB) [13]; HEK-293T): 99.8%
- Emax (human KOR (GoB) [14]): 91%
- Emax (human KOR (GoB) [15]): 99%
- Emax (human KOR (GoB) [16]): 91.1%
- Emax (human KOR (GoB) [17]): 103%
- Emax (human KOR (GoB) [18]): 77.5%
- Emax (human KOR (GoB) [19]): 91%
- Emax (human KOR (GoB) [20]): 108%
- Emax (human KOR (GoB) [21]): 98.3%
- Emax (human KOR (GoB) [22]): 94.3%
- Emax (human KOR (GoB) [23]): 107%
- Emax (human KOR (GoB) [24]): 98.7%
- Emax (human KOR (GoB) [25]): 87.1%
- Emax (human KOR (GoB) [26]): 93.6%
- Emax (human KOR (GoB) [27]): 80.5%
- Emax (human KOR (GoB) [28]): 87.8%
- Emax (human KOR (GoB) [29]): 99.6%
- Emax (human KOR (GoB) [30]): 101%
- Emax (human KOR (GoB) [31]): 100%
- Emax (human KOR (GoB) [32]): 76%
- ΔΔLog τ/KA (95% confidence interval) (KOR [33]): 0.78 (0.65 to 0.91)
- bias factor toward G protein signaling (KOR [34]): 4.5
